Reference: patent publication US11643421B2, “Process for the preparation of tricyclic PI3K inhibitor compounds and methods for using the same for the treatment of cancer” (priority 2015, dated 2023)
Where two headings read alike, the source gives them in different places.

Assays:
[1] = Phase I dose-escalation study, plasma pharmacokinetics; format: in vivo, human; conditions: for concentration at 15 day: read-out: Cmin (μM), Mean; for AUC(0-t): read-out: AUC0-24 (μM*hr), Mean; for AUC(0-inf): read-out: AUCinf (μM*hr), Mean
Protocol: Plasma samples for pharmacokinetic (“PK”) analysis were collected on day 1 and day 8 or day 15 of cycle 1. Fluorodeoxyglucose positron emission tomography (“FDG-PET”) was performed at baseline and on-treatment.
Dosing times may have been adjusted to accommodate for time shifts from the home administration schedule (e.g., for clinic visits with PK sampling or traveling), but times were to be adjusted by no more than 4 hours at a time.
For administration under fasted conditions, patients fasted overnight for at least 8 hours before dosing and 2 hours after dosing.
For Cohorts 1-6 (2-30 mg), the single dose on Cycle 1, Day 1 was followed by a 7 day washout-period, after which continuous once daily dosing, for 28 consecutive days, was started on Day 8. Blood samples for Cohorts 1-6 were collected on Day 15 for PK analysis.
All plasma concentration-time data collected in Cycle 1 were analyzed using WinNonlin® (Version 6.4, Pharsight Corp, Mountain View, Calif.) to estimate PK parameters, which included but were not limited to AUC0-last (where AUC refers to the area under the concentration-time curve) and/or AUCinf, Cmax, Cmin, tmax, half-life, CL/F, and accumulation ratio. Estimates for each PK parameter and summary statistics (mean, standard deviation, coefficient of variation, median, minimum, and maximum) were tabulated by dose level and schedule. Nominal time data were used in the analysis, and the linear up/log down trapezoidal method was used for calculating AUC.

human P-gp (MDR1) = target: T1, human P-gp (MDR1) (Homo sapiens, UniProt P08183); assay: Transport assay in MDR1-MDCKI cell monolayers; format: in vitro ADME; conditions: MDCK-MDR1, 2-hour incubation
T1 construct: host or cells: MDR1-MDCKI (canine kidney)
T1 sequence (P08183 whole entry): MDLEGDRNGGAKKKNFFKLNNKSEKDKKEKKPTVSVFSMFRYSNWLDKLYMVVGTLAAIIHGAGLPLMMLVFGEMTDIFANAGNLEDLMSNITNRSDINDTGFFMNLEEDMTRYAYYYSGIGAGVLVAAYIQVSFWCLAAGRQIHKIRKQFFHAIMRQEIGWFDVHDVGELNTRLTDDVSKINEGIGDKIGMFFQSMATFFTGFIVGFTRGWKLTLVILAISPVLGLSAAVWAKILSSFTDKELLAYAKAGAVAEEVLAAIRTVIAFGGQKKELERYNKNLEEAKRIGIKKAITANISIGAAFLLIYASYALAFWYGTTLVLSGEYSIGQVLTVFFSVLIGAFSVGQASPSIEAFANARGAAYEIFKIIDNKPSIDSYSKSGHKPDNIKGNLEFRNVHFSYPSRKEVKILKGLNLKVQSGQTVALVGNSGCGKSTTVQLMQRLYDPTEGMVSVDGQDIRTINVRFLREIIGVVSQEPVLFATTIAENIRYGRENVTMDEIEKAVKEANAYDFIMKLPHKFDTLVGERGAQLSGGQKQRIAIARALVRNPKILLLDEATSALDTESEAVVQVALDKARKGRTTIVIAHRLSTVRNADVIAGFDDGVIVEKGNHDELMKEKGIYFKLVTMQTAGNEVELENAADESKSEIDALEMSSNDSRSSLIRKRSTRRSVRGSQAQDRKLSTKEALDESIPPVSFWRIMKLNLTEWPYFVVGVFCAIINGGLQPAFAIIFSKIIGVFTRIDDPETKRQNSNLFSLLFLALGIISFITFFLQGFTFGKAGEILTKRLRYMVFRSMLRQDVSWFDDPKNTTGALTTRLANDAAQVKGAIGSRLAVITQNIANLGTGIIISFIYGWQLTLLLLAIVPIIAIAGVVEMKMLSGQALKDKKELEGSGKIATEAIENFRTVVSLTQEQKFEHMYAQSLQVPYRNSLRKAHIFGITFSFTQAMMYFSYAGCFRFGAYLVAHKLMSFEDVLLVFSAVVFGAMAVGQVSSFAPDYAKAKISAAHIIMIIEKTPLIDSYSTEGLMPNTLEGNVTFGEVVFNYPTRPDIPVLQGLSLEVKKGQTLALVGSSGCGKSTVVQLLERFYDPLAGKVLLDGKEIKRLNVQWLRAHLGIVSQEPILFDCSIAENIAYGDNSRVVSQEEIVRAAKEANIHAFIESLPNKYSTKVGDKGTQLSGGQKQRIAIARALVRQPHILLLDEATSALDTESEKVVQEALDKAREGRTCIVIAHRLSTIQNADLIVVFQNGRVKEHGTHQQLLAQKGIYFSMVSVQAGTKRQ
Protocol: MDR1-MDCKI cells were licensed from the NCI (National Cancer Institute, Bethesda, Md.) and Bcrp1-MDCKII, BCRP-MDCKII and Mdr1a-LLC-PK1 cells were obtained from the Netherlands Cancer Institute (Amsterdam. The Netherlands). […] The compound was dissolved in transport buffer consisting of Hank's balanced salt solution (HBSS) with 10 mM HEPES (Invitrogen Corporation, Grand Island, N.Y.). Lucifer Yellow (Sigma-Aldrich, St. Louis, Mo.) was used as the paracellular and monolayer integrity marker. […] The efflux ratio (ER) was calculated (Papp, B-A/Papp, A-B).

pS6 = assay: PI3K pathway modulation in GS2 tumors, western blot; format: in vivo, mice; conditions: 15 mg/kg PO daily 4 weeks
Axl = Axl (Homo sapiens, UniProt P30530); assay: biochemical; conditions: read-out: % inhib
Chain of Axl (P30530 26-894, species assumed): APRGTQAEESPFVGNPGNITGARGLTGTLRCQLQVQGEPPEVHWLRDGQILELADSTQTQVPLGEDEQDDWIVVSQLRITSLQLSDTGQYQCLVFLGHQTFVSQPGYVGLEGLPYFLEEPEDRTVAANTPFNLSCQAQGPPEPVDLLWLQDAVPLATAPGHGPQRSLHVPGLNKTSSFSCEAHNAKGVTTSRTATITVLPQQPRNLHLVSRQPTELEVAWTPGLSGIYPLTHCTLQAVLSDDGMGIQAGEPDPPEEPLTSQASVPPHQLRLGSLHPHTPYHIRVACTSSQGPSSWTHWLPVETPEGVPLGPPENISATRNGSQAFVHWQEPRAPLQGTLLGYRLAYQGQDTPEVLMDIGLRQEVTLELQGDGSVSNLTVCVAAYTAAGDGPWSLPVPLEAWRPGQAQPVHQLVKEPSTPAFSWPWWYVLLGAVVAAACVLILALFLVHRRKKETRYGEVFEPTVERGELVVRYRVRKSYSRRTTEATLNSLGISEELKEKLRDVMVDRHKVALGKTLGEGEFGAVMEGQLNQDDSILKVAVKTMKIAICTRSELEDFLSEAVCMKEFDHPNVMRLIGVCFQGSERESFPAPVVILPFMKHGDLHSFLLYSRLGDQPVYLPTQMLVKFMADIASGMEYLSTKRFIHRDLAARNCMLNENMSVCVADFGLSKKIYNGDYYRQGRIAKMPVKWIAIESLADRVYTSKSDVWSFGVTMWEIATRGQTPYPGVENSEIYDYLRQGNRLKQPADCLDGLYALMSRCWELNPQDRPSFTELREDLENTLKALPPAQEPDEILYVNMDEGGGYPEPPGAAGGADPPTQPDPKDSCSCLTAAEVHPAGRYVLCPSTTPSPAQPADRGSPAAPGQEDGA

CHK1 = CHK1 (Homo sapiens, UniProt O14757); assay: biochemical; conditions: read-out: % inhib
Frk = Frk (Homo sapiens, UniProt P42685); assay: biochemical; conditions: read-out: % inhib
GRK5 = GRK5 (Homo sapiens, UniProt P34947); assay: biochemical; conditions: read-out: % inhib
Chain of GRK5 (P34947 whole entry): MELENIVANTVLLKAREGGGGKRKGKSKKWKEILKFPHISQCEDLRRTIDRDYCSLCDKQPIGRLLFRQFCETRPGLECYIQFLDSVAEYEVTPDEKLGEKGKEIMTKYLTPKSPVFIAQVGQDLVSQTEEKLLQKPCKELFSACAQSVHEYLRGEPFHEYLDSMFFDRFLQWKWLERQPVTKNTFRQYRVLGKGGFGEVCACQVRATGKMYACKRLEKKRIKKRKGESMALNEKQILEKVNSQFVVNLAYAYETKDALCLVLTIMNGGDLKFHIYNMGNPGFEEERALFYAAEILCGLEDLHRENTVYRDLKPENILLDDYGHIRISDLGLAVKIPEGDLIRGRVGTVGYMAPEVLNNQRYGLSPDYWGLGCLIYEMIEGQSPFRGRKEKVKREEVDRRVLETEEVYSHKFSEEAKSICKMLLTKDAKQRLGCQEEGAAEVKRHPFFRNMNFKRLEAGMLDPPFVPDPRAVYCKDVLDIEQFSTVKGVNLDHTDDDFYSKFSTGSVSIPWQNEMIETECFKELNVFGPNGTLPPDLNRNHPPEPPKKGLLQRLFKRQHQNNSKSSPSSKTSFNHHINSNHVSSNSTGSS

MEK1 = MEK1 (Homo sapiens, UniProt Q02750); assay: biochemical; conditions: read-out: % inhib
Chain of MEK1 (Q02750 whole entry): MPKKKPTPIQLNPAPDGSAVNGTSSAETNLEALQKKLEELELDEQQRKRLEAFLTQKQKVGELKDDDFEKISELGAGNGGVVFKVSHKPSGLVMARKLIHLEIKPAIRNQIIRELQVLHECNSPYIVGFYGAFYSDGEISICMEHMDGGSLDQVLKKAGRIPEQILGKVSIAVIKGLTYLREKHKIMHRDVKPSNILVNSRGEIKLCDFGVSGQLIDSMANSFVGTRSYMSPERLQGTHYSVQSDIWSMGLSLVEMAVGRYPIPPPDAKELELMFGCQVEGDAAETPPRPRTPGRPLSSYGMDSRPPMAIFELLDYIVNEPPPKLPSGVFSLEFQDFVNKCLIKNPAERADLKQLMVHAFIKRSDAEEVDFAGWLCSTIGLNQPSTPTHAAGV

MYLK2 (skMLCK) = MYLK2 (skMLCK) (Homo sapiens, UniProt Q9H1R3); assay: biochemical; conditions: read-out: % inhib
Chain of MYLK2 (skMLCK) (Q9H1R3 whole entry): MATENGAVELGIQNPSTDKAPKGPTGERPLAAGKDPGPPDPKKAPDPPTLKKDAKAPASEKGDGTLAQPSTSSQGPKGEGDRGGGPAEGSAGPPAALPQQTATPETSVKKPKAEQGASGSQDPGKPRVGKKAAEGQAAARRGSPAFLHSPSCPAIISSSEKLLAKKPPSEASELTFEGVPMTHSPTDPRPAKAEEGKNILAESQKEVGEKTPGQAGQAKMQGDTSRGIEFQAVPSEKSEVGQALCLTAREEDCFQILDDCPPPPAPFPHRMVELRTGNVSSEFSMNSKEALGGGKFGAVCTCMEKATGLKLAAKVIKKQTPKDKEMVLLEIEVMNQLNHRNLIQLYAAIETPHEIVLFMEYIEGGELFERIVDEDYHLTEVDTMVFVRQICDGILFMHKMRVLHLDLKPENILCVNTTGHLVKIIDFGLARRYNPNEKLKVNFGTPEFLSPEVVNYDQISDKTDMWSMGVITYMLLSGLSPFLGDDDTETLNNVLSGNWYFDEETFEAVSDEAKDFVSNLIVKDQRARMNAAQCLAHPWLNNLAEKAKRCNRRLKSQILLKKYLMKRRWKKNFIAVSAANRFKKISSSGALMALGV

TBK1 = TBK1 (Homo sapiens, UniProt Q9UHD2); assay: biochemical; conditions: read-out: % inhib
Chain of TBK1 (Q9UHD2 whole entry, species assumed): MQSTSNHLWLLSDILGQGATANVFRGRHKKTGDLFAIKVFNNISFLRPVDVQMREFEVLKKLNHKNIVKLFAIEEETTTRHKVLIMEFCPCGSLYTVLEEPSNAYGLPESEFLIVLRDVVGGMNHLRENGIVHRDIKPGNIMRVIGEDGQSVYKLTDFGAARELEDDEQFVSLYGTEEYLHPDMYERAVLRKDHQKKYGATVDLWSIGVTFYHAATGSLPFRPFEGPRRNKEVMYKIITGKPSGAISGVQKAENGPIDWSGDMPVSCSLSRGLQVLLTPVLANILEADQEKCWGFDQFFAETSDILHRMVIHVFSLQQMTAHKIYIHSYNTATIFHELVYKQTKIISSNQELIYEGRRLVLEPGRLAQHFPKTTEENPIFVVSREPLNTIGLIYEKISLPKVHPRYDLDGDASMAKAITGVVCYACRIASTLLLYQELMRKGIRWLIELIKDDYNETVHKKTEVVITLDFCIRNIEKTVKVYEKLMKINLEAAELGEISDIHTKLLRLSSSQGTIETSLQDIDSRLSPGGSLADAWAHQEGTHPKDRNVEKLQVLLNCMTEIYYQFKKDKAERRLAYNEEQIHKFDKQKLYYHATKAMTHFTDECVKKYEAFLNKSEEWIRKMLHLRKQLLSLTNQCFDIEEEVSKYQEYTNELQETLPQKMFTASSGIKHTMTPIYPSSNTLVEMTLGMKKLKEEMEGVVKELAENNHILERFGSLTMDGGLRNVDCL

ZAP-70 = ZAP-70 (Homo sapiens, UniProt P43403); assay: biochemical; conditions: read-out: % inhib
Chain of ZAP-70 (P43403 whole entry, species assumed): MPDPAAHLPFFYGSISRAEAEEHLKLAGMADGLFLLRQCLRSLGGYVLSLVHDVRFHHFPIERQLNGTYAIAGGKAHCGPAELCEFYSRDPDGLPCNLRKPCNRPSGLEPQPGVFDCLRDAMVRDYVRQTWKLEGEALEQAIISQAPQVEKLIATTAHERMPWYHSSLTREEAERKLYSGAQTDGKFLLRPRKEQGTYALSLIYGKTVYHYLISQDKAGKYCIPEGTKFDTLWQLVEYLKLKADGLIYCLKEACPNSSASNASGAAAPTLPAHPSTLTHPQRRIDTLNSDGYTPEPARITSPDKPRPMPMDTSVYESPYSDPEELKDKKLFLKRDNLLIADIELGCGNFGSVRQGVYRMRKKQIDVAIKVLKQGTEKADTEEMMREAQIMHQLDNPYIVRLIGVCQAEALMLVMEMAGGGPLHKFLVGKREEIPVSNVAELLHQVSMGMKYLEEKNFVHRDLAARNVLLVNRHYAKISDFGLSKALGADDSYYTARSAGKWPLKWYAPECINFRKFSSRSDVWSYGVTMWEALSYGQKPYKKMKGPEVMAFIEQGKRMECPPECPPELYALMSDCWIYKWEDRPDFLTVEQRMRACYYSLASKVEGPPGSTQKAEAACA

[2] = human, plasma, oral, 2 mg once daily, multiple doses, Cycle 1 Day 15
[3] = human, plasma, oral, 4 mg once daily, multiple doses, Cycle 1 Day 15
[4] = human, plasma, oral, 8 mg once daily, multiple doses, Cycle 1 Day 15
[5] = human, plasma, oral, 15 mg once daily, multiple doses, Cycle 1 Day 15
[6] = human, plasma, oral, 20 mg once daily, multiple doses, Cycle 1 Day 15
[7] = human, plasma, oral, 45 mg once daily, multiple doses, Cycle 1 Day 8
[8] = human, plasma, oral, 65 mg once daily, multiple doses, Cycle 1 Day 8
[9] = human, plasma, 2 mg single oral dose, Cycle 1 Day 1
[10] = human, plasma, 4 mg single oral dose, Cycle 1 Day 1
[11] = human, plasma, 8 mg single oral dose, Cycle 1 Day 1
[12] = human, plasma, 15 mg single oral dose, Cycle 1 Day 1
[13] = human, plasma, 20 mg single oral dose, Cycle 1 Day 1
[14] = human, plasma, 30 mg single oral dose, Cycle 1 Day 1
[15] = human, plasma, 45 mg single oral dose, Cycle 1 Day 1
[16] = human, plasma, 65 mg single oral dose, Cycle 1 Day 1

CC1(C)OCCn2c1nc1c(N3CCOCC3)nc(-c3cnc(N)nc3)nc12 [GDC-0084, 5-(6,6-dimethyl-4-morpholino-8,9-dihydro-6H-[1,4]oxazino[3,4-e]purin-2-yl)pyrimidin-2-amine]
concentration at 15 day ([1]; 4 mg once daily, multiple doses, Cycle 1 Day 15): 0.0207 µM | CL/F (L/hr), Mean ([1]; 4 mg single oral dose, Cycle 1 Day 1): 4.87 L/h | concentration at 15 day ([1]; 8 mg once daily, multiple doses, Cycle 1 Day 15): 0.0301 µM | CL/F (L/hr), Mean ([1]; 8 mg single oral dose, Cycle 1 Day 1): 12.4 L/h | concentration at 15 day ([1]; 15 mg once daily, multiple doses, Cycle 1 Day 15): 0.0581 µM | concentration at 15 day ([1]; 20 mg once daily, multiple doses, Cycle 1 Day 15): 0.0635 µM | CL/F (L/hr), Mean ([1]; 20 mg single oral dose, Cycle 1 Day 1): 7.92 L/h | concentration at 15 day ([1]; 30 mg once daily, multiple doses, Cycle 1 Day 15): 0.155 µM | CL/F (L/hr), Mean ([1]; 30 mg single oral dose, Cycle 1 Day 1): 8.22 L/h | concentration at 15 day ([1]; 45 mg once daily, multiple doses, Cycle 1 Day 8): 0.206 µM | concentration at 15 day ([1]; 65 mg once daily, multiple doses, Cycle 1 Day 8): 0.271 µM | half-life ([1]; human, plasma, oral, across Cohorts 1-6 (2 to 30 mg), single dose, read-out: apparent terminal phase t1/2 (converted)): ~18.7 h | Cmax [1, 2]: 0.0331 µM | AUC(0-t) [1, 2]: 0.346 µM·h | concentration at 15 day [1, 2]: 0.00877 µM | Tmax ([1]; human, plasma, oral, 2 mg once daily, multiple doses, Cycle 1 Day 15, read-out: Tmax (hr), Median): 2 h | Cmax [1, 3]: 0.593 µM | AUC(0-t) [1, 3]: 0.833 µM·h | Tmax ([1]; human, plasma, oral, 4 mg once daily, multiple doses, Cycle 1 Day 15, read-out: Tmax (hr), Median): 2 h | Cmax [1, 4]: 0.0883 µM | AUC(0-t) [1, 4]: 1.16 µM·h | Tmax ([1]; human, plasma, oral, 8 mg once daily, multiple doses, Cycle 1 Day 15, read-out: Tmax (hr), Median): 2.5 h | Cmax [1, 5]: 0.156 µM | AUC(0-t) [1, 5]: 2.34 µM·h | Tmax ([1]; human, plasma, oral, 15 mg once daily, multiple doses, Cycle 1 Day 15, read-out: Tmax (hr), Median): 3 h | Cmax [1, 6]: 0.23 µM | AUC(0-t) [1, 6]: 2.87 µM·h | Tmax ([1]; human, plasma, oral, 20 mg once daily, multiple doses, Cycle 1 Day 15, read-out: Tmax (hr), Median): 2 h | Cmax ([1]; human, plasma, oral, 30 mg once daily, multiple doses, Cycle 1 Day 15): 0.332 µM | AUC(0-t) ([1]; human, plasma, oral, 30 mg once daily, multiple doses, Cycle 1 Day 15, n = 5): 5.67 µM·h | Tmax ([1]; human, plasma, oral, 30 mg once daily, multiple doses, Cycle 1 Day 15, read-out: Tmax (hr), Median): 2 h | Cmax [1, 7]: 0.544 µM | AUC(0-t) [1, 7]: 8.06 µM·h | Tmax ([1]; human, plasma, oral, 45 mg once daily, multiple doses, Cycle 1 Day 8, read-out: Tmax (hr), Median): 3.5 h | Cmax [1, 8]: 0.58 µM | AUC(0-t) [1, 8]: 9.01 µM·h | Tmax ([1]; human, plasma, oral, 65 mg once daily, multiple doses, Cycle 1 Day 8, read-out: Tmax (hr), Median): 3 h | half-life ([1]; human, plasma, po, 2 mg, 2 mg single oral dose, Cycle 1 Day 1, read-out: T1/2 (hr), Mean (converted)): 16.9 h | half-life ([1]; human, plasma, po, 4 mg, 4 mg single oral dose, Cycle 1 Day 1, read-out: T1/2 (hr), Mean (converted)): 21.8 h | half-life ([1]; human, plasma, po, 8 mg, 8 mg single oral dose, Cycle 1 Day 1, read-out: T1/2 (hr), Mean (converted)): 18.2 h | half-life ([1]; human, plasma, po, 15 mg, 15 mg single oral dose, Cycle 1 Day 1, read-out: T1/2 (hr), Mean (converted)): 18.1 h | half-life ([1]; human, plasma, po, 20 mg, 20 mg single oral dose, Cycle 1 Day 1, read-out: T1/2 (hr), Mean (converted)): 14.8 h | half-life ([1]; human, plasma, po, 30 mg, 30 mg single oral dose, Cycle 1 Day 1, read-out: T1/2 (hr), Mean (converted)): 22 h | AUC(0-t) [1, 9]: 0.21 µM·h | AUC(0-inf) [1, 9]: 0.365 µM·h | Tmax ([1]; human, plasma, 2 mg single oral dose, Cycle 1 Day 1, read-out: Tmax (hr), Median): 2 h | Cmax [1, 10]: 0.0359 µM | AUC(0-t) [1, 10]: 0.435 µM·h | AUC(0-inf) [1, 10]: 0.833 µM·h | Tmax ([1]; human, plasma, 4 mg single oral dose, Cycle 1 Day 1, read-out: Tmax (hr), Median): 3 h | Cmax [1, 11]: 0.0452 µM | AUC(0-t) [1, 11]: 0.509 µM·h | AUC(0-inf) [1, 11]: 0.974 µM·h | Tmax ([1]; human, plasma, 8 mg single oral dose, Cycle 1 Day 1, read-out: Tmax (hr), Median): 3 h | Cmax [1, 12]: 0.0912 µM | AUC(0-t) [1, 12]: 1.09 µM·h | AUC(0-inf) [1, 12]: 1.97 µM·h | Tmax ([1]; human, plasma, 15 mg single oral dose, Cycle 1 Day 1, read-out: Tmax (hr), Median): 2 h | Cmax [1, 13]: 0.159 µM | AUC(0-t) [1, 13]: 1.9 µM·h | AUC(0-inf) [1, 13]: 2.75 µM·h | Tmax ([1]; human, plasma, 20 mg single oral dose, Cycle 1 Day 1, read-out: Tmax (hr), Median): 2 h | Cmax [1, 14]: 0.174 µM | AUC(0-t) [1, 14]: 2.42 µM·h | AUC(0-inf) [1, 14]: 5.33 µM·h | Tmax ([1]; human, plasma, 30 mg single oral dose, Cycle 1 Day 1, read-out: Tmax (hr), Median): 2 h | Cmax [1, 15]: 0.234 µM | AUC(0-t) [1, 15]: 3.12 µM·h | Tmax ([1]; human, plasma, 45 mg single oral dose, Cycle 1 Day 1, read-out: Tmax (hr), Median): 3 h | Cmax [1, 16]: 0.255 µM | AUC(0-t) [1, 16]: 4.06 µM·h | Tmax ([1]; human, plasma, 65 mg single oral dose, Cycle 1 Day 1, read-out: Tmax (hr), Median): 2.5 h | Tmax ([1]; human, plasma, single oral dose, all cohorts, read-out: median Tmax): ~2 h | dose proportionality of Cmax and AUC0-24 ([1]; single and multiple doses, 2 mg to 65 mg once daily): approximately linear and dose proportional increase in Cmax and AUC0-24 | Papp A→B at 2 h, 5 μM (human P-gp (MDR1)): 13.5 ± 0.9 ×10⁻⁶ cm/s | Suppression of pS6 in GS2 tumors (pS6; 2 hours after final administration): 35% | pS6 level in GS2 tumors (pS6; 8 hours post-dose): back to baseline levels | inhibition at 1 µM (Axl): 6% | inhibition at 1 µM (CHK1): 0.6% | inhibition at 1 µM (Frk): 8% | inhibition at 1 µM (GRK5): -10% | inhibition at 1 µM (MEK1): -0.1% | inhibition at 1 µM (MYLK2 (skMLCK)): 3% | inhibition at 1 µM (TBK1): 4% | inhibition at 1 µM (ZAP-70): -0.9%
